Here are results for 38 molecules from patent publication US7291641B2, “Derivatives of heterocycles with 5 members, their preparation and their use as medicaments” (Societe de Conseils de Recherches et d'Applications …, priority 1999, dated 2007).

Counter-ions that a name gives are not always drawn.

Molecule `CCCCOC(=O)NCCc1nc(-c2ccc(-c3cccc(F)c3)cc2)c[nH]1` [Example 444, butyl 2-[4-(3′-fluoro-1,1′-biphenyl-4-yl)-1H-imidazol-2-yl]ethylcarbamate] showed a melting point of 141.5 °C. Next, `CNCc1nc(-c2ccc(-c3ccccc3)cc2)c[nH]1` (as salt: hydrochloride) [Example 155, (4-[1,1′-biphenyl]-4-yl-1H-imidazol-2-yl)-N-methylmethanamine]: 218 to 220 °C. Next, `CCC[C@@H](N)c1nc(-c2ccccc2)c[nH]1` (as salt: hydrochloride) [Example 211, (1R)-1-(4-phenyl-1H-imidazol-2-yl)-1-butanamine]: 182 to 184 °C. The molecule `CCCCCCC(N)c1nc(-c2ccccc2Cl)c[nH]1` (racemic) (as salt: hydrochloride) [Example 221, (R,S)-1-[4-(2-chlorophenyl)-1H-imidazol-2-yl]-1-heptanamine] showed a melting point of 138 to 140 °C. `COc1ccc(-c2c[nH]c(CCNC(=O)OCCC(C)(C)C)n2)cc1` [Example 388, 3,3-dimethylbutyl 2-[4-(4-methoxyphenyl)-1H-imidazol-2-yl]ethylcarbamate] gave a melting point of 116.8 °C. Then `CC(C)CCC(NC1CCCCC1)c1nc(-c2ccc(F)cc2)c[nH]1` (racemic) (as salt: hydrochloride) [Example 257, (R,S)-N-{1-[4-(4-fluorophenyl)-1H-imidazol-2-yl]4-methylpentyl}-cyclohexanamine], with 230 to 232 °C; and `CCCCOC(=O)NCCc1nc(-c2ccc(-c3cc(F)ccc3F)cc2)c[nH]1` [Example 460, butyl 2-[4-(2′,5′-difluoro-1,1′-biphenyl-4-yl)-1H-imidazol-2-yl]ethylcarbamate], with 109.5 °C; and `Fc1ccc2c(CC(NCc3ccccc3)c3nc(-c4ccccc4)c[nH]3)c[nH]c2c1` (racemic) [Example 105, (R,S)-N-benzyl-2-(6-fluoro-1H-indol-3-yl)-1-(4-phenyl-1H-imidazol-2-yl)ethanamine], with 98 to 100 °C.

With `CCCCCCC(N)c1nc(-c2cc(C(C)(C)C)c(O)c(C(C)(C)C)c2)c[nH]1` (racemic) (as salt: hydrochloride) [Example 210, (R,S)-4-[2-(1-aminoheptyl)-1H-imidazol-4-yl]-2,6-di(tert-butyl)-phenol], the melting point is 204 to 206 °C. The molecule `CN(Cc1nc(-c2ccccc2)c(-c2ccccc2)[nH]1)C(=O)OC(C)(C)C` [Example 156, tert-butyl (4,5-diphenyl-1H-imidazol-2-yl)methyl(methyl)carbamate] had a melting point of 170 to 172 °C. Next, `CCCCCCC(N)c1nc(-c2ccc(F)cc2)c[nH]1` (racemic) (as salt: hydrochloride) [Example 220, (R,S)-1-[4-(4-fluorophenyl)-1H-imidazol-2-yl]-1-heptanamine]: 148 to 150 °C. In turn, `CCCCCCC(NCc1ccc(OC)cc1)c1nc(-c2ccccc2)c[nH]1` (racemic) [Example 227, (R,S)-N-(4-methoxybenzyl)-1-(4-phenyl-1H-imidazol-2-yl)-1-heptanamine] returned a melting point of 126 to 128 °C. Then `c1ccc(CN[C@H](CC2CCCCC2)c2nc(-c3ccc(-c4ccccc4)cc3)c[nH]2)cc1` [Example 169, (1R)-N-benzyl-1-(4-[1,1′-biphenyl]-4-yl-1H-imidazol-2-yl)-2-cyclohexylethanamine], with 233 to 238 °C; and `N[C@H](c1nc(-c2cccc(F)c2)c[nH]1)C1CCCCC1` (as salt: hydrochloride) [Example 311, (S)-1-cyclohexyl-1-[4-(3-fluorophenyl)-1H-imidazol-2-yl]methanamine], with 238 to 241 °C; and `CC(C)(C)OC(=O)NCc1nc(-c2ccc(-c3ccccc3)cc2)c[nH]1` [Example 137, 4-(2-{[(tert-butoxycarbonyl)amino]methyl}-1H-imidazol-4-yl)-1,1′-biphenyl], with 100 to 102 °C.

In the case of `NCc1nc(-c2ccc(-c3ccccc3)cc2)cn1Cc1ccccc1` (as salt: hydrochloride) [Example 143, (1-benzyl-4-[1,1′-biphenyl]-4-yl-1H-imidazol-2-yl)methanamine], the melting point was 170 to 174 °C.

`c1ccc(CNCc2nc(-c3ccccc3)cn2Cc2ccccc2)cc1` [Example 110, N-benzyl(1-benzyl-4-phenyl-1H-imidazol-2-yl)methanamine]: the melting point fell in the range of 60 to 62 °C. Then `CCCCCCNC(CCCCCC)c1nc(-c2ccccc2)c[nH]1` (racemic) [Example 64, (R,S)-N-hexyl-1-(4-phenyl-1H-imidazol-2-yl)-1-heptanamine], with 140 to 142 °C; and `CN(C)Cc1nc(-c2ccccc2)cn1Cc1ccccc1` [Example 45, (1-benzyl-4-phenyl-1H-imidazol-2-yl)-N,N-dimethylmethanamine], with 78 to 80 °C. Molecule `CCCCCCC(NCc1ccccc1)c1nc(-c2ccccc2)c[nH]1` (racemic) [Example 145, (R,S)-N-benzyl-1-(4-phenyl-1H-imidazol-2-yl)-1-heptanamine] registered a melting point of 160 to 162 °C. Then `CC(C)COC(=O)NCCc1nc(-c2ccc(-c3ccccc3)cc2)c[nH]1` [Example 239, 4-(2-{2-[(isobutoxycarbonyl)amino]ethyl}-1H-imidazol-4-yl)-1,1′-biphenyl], with 134 to 135 °C; and `COC(=O)NCCc1nc(-c2ccc(-c3ccccc3)cc2)c[nH]1` [Example 244, 4-(2-{2-[(methoxycarbonyl)amino]ethyl}-1H-imidazol-4-yl)-1,1′-biphenyl], with 177.2 °C; and `CCCCOC(=O)NCCc1nc(-c2ccc(C(F)(F)F)cc2)c[nH]1` [Example 300, butyl 2-{4-[4-(trifluoromethyl)phenyl]-1H-imidazol-2-yl}ethylcarbamate], with 104 to 105 °C.

As for `CCCCOC(=O)NCCc1nc(-c2ccc(-c3ccc(F)cc3)cc2)c[nH]1` [Example 392, butyl 2-[4-(4′-fluoro-1,1′-biphenyl-4-yl)-1H-imidazol-2-yl]ethylcarbamate], the melting point was found to be 149.3 °C. Next, `CCCCCCC(N)c1nc(-c2ccc(Cl)c(Cl)c2)c[nH]1` (racemic) (as salt: hydrochloride) [Example 231, (R,S)-1-[4-(3,4-dichlorophenyl)-1H-imidazol-2-yl]-1-heptanamine]: 148 to 150 °C. Molecule `Fc1ccc(-c2c[nH]c(C(Cc3c[nH]c4ccc(F)cc34)NC3CCC3)n2)cc1` (racemic) (as salt: hydrochloride) [Example 256, (R,S)-N-{2-(5-fluoro-1H-indol-3-yl)-1-[4-(4-fluorophenyl)-1H-imidazol-2-yl]ethyl}cyclobutanamine] gave a melting point of 180 to 190 °C. Then `CC(C)(C)c1cn(Cc2ccccc2)c([C@@H](Cc2c[nH]c3ccccc23)NCc2ccccc2)n1` [Example 39, (1R)-N-benzyl-1-(1-benzyl-4-tert-butyl-1H-imidazol-2-yl)-2-(1H-indol-3-yl)ethanamine], with 60 to 62 °C. Next, `CC(C)CCCC(NCc1ccccc1)c1nc(-c2cccc(Br)c2)c[nH]1` (racemic) [Example 235, (R,S)-N-benzyl-1-[4-(3-bromophenyl)-1H-imidazol-2-yl]-5-methyl-1-hexanamine]: 92 to 94 °C; `CC(C)C[C@@H](NC(=O)OC(C)(C)C)c1nc(-c2ccccc2)c[nH]1` [Example 124, tert-butyl (1R)-3-methyl-1-(4-phenyl-1H-imidazol-2-yl)butylcarbamate]: 88 to 90 °C. As to `CC(C)(C)NC(=S)NCCc1nc(-c2ccc(-c3ccccc3)cc2)c[nH]1` [Example 172, 4-[2-(2-{[(tert-butylamino)carbothioyl]amino}ethyl)-1H-imidazol-4-yl]-1,1′-biphenyl], the melting point was 98 to 99 °C. Then `Fc1ccc(-c2c[nH]c([C@@H](CC3CCCCC3)NC3CCCCC3)n2)cc1` [Example 309, N-{(1R)-2-cyclohexyl-1-[4-(4-fluorophenyl)-1H-imidazol-2-yl]ethyl}cyclohexanamine], with 217 to 218 °C; and `Brc1cccc(-c2c[nH]c([C@@H](NCC3CCCCC3)C3CCCCC3)n2)c1` (as salt: hydrochloride) [Example 306, (S)-1-[4-(3-bromophenyl)-1H-imidazol-2-yl]-1-cyclohexyl-N-(cyclohexylmethyl)methanamine], with 206.3 °C; and `c1ccc(CN[C@H](Cc2c[nH]c3ccccc23)c2nc(-c3ccccc3)cs2)cc1` [Example 100, (1R)-N-benzyl-2-(1H-indol-3-yl)-1-(4-phenyl-1,3-thiazol-2-yl)ethanamine], with 134 to 136 °C.

Consider `CCCCOC(=O)NCCc1nc(-c2ccc(-c3ccccc3Cl)cc2)c[nH]1` [Example 454, butyl 2-[4-(2′-chloro-1,1′-biphenyl-4-yl)-1H-imidazol-2-yl]ethylcarbamate], for which the melting point came out at 99.7 °C. `O=C(NCCc1nc(-c2ccc(-c3ccccc3)cc2)c[nH]1)OCCc1ccccc1` [Example 391, 2-phenylethyl 2-[4-(1,1′-biphenyl-4-yl)-1H-imidazol-2-yl]ethylcarbamate] registered a melting point of 142 to 143 °C.

In turn, `CCCCOC(=O)NCCc1nc(-c2ccc(-c3cccc([N+](=O)[O-])c3)cc2)c[nH]1` [Example 459, butyl 2-[4-(3′-nitro-1,1′-biphenyl-4-yl)-1H-imidazol-2-yl]ethylcarbamate] had a melting point of 100.5 to 101.5 °C. Then `O=C(N[C@H](Cc1c[nH]c2ccccc12)c1nc(-c2ccccc2)c[nH]1)c1ccccc1` [Example 98, N-[(1R)-2-(1H-indol-3-yl)-1-(4-phenyl-1H-imidazol-2-yl)ethyl]benzamide], with 218 to 220 °C; and `CCCCCCC(NCCCCC)c1nc(-c2ccccc2)c[nH]1` (racemic) [Example 75, (R,S)-N-pentyl-1-(4-phenyl-1H-imidazol-2-yl)-1-heptanamine], with 118 to 120 °C.

For orientation: melting point means the temperature, or range, at which the solid turns liquid.
